One assay has as its target human TLR9 (Homo sapiens (Human), UniProt Q9NR96). Nature of the assay: TLR9 inhibition reporter assay (HEK-Blue SEAP reporter, ODN2006 stimulation).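 Also: SEAP reporter under IFN-β minimal promoter with five NF-κB and AP-1 sites, 22 h incubation, compounds 0.05 nM–50 µM, inhibition relative to agonist plus DMSO versus known inhibitor.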 The following applies: read-out: TLR9 IC50; HEK-Blue cells overexpressing human TLR9, ODN2006 5 nM, SEAP reporter.
A further assay deals with human TLR8 (Homo sapiens (Human), UniProt Q9NR97). The assay can be described thus: TLR8 inhibition reporter assay (HEK-Blue SEAP reporter, R848 stimulation).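 Also: SEAP driven by IFN-β minimal promoter with NF-κB and AP-1 sites, 22 h incubation, compounds 0.05 nM–50 µM, inhibition scaled between agonist plus DMSO and reference inhibitor wells.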 The following applies: read-out: TLR8 IC50; HEK-Blue cells overexpressing human TLR8, R848 15.9 μM, SEAP reporter. For orientation: A reporter such as luciferase makes a cellular process visible.
In a further assay the target is human TLR7 (Homo sapiens (Human), UniProt Q9NYK1). Nature of the assay: TLR7 inhibition reporter assay (HEK-Blue SEAP reporter, gardiquimod stimulation). In kind it is cell-based. The settings on record: HEK-Blue cells overexpressing human TLR7, gardiquimod 7.5 μM.

Where only a bound is given, the exact number is not on record here.

Data on 25 compounds can be found in patent US11420973B2, “Amide substituted indole compounds useful as TLR inhibitors” (BRISTOL-MYERS SQUIBB COMPANY, priority 2017, dated 2022).

By IC50 is commonly meant the concentration that gives 50% inhibition.

Sequence of human TLR7 (Q9NYK1 27-1049): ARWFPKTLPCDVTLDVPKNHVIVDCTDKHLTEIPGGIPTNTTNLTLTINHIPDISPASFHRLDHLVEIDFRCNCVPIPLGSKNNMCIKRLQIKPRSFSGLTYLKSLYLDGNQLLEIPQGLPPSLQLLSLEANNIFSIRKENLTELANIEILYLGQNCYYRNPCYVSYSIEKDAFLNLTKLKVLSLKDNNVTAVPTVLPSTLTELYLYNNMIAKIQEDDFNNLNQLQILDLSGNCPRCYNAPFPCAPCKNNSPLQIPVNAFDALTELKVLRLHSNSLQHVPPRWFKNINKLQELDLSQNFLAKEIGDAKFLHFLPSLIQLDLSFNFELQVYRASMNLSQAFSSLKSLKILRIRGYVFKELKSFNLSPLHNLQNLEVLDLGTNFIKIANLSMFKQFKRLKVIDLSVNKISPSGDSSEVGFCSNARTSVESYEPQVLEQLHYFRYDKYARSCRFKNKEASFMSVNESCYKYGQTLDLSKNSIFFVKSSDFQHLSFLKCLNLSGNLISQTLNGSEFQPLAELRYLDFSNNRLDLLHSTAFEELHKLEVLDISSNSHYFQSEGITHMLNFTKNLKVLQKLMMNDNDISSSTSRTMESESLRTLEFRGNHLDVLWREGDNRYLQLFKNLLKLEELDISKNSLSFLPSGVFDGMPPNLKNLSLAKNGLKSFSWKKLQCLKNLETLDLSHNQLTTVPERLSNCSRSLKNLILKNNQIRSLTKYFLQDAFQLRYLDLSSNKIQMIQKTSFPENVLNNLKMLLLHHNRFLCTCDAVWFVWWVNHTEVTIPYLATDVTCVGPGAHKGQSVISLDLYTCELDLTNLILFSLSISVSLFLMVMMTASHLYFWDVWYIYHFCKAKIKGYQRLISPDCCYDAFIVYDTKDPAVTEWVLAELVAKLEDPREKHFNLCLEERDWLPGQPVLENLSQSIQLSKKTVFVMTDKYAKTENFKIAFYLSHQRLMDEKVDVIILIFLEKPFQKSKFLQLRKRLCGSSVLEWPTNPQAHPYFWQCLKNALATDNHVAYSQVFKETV
Sequence of human TLR8 (Q9NR97 27-1041): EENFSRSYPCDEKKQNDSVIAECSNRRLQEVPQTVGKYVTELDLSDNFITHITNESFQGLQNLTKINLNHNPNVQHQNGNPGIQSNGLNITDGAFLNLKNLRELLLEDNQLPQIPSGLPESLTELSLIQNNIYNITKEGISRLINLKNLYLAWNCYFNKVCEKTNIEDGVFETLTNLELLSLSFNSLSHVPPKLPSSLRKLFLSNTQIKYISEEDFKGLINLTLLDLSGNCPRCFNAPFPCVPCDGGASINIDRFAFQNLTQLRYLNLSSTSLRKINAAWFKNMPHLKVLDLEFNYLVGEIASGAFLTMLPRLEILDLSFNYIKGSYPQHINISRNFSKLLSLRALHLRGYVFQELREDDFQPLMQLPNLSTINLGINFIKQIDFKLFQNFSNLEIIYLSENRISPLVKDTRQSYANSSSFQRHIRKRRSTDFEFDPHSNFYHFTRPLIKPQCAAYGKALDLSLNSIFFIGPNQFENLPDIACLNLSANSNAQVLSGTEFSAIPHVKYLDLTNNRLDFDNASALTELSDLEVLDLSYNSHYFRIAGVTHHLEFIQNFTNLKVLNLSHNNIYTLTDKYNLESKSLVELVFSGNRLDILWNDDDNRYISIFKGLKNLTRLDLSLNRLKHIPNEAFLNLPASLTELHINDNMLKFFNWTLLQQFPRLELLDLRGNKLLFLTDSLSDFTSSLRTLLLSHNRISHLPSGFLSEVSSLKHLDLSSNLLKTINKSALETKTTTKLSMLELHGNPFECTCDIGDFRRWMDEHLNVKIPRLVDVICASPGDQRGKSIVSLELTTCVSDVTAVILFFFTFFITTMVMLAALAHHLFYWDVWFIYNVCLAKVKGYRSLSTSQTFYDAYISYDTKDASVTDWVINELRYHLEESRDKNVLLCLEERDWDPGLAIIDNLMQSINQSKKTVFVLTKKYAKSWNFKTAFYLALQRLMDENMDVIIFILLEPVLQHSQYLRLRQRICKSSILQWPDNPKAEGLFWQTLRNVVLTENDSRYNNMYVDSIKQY
Sequence of human TLR9 (Q9NR96 26-1032): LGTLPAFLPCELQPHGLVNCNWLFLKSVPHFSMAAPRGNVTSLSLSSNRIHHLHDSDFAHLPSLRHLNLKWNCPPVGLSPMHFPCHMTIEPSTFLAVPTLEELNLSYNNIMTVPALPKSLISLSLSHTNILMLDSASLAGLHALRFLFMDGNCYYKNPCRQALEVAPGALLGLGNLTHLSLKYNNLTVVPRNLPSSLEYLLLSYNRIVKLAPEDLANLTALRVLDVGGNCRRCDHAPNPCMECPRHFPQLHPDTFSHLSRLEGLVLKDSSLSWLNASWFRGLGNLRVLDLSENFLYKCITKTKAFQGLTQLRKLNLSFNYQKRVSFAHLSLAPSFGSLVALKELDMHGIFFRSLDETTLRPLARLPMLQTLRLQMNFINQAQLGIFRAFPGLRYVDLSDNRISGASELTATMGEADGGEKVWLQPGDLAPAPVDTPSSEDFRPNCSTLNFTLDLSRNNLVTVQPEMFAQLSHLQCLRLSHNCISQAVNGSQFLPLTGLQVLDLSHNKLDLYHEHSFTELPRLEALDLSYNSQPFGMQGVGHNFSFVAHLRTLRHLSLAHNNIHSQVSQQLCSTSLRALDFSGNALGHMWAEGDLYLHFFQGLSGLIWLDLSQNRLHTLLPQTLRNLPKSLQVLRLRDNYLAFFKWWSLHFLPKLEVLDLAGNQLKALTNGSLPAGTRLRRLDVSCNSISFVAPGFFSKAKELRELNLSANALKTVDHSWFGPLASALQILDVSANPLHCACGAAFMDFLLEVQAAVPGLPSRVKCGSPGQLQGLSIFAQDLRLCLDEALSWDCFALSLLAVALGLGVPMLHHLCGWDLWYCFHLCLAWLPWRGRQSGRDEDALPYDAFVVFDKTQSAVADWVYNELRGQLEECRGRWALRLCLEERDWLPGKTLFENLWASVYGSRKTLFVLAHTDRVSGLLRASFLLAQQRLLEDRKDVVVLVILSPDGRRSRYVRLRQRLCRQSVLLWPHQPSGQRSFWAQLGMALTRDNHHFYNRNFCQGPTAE
Experimental for human TLR8: (§1) HEK-Blue™-cells (Invivogen) overexpressing human TLR7, TLR8 or TLR9 receptors were used for screening inhibitors of these receptors using an inducible SEAP (secreted embryonic alkaline phosphatase) reporter gene under the control of the IFN-β minimal promoter fused to five NF-κB and AP-1-binding sites. Briefly, cells are seeded into Greiner 384 well plates (15000 cells per well for TLR7, 20,000 for TLR8 and 25,000 for TLR9) and then treated with test compounds in DMSO to yield a final dose response concentration range of 0.05 nM-50 μM. After a 30 minute compound pre-treatment at room temperature, the cells are then stimulated with a TLR7 ligand (gardiquimod at a final concentration of 7.5 μM), TLR8 ligand (R848 at a final concentration of 15.9 μM) or TLR9 ligand (ODN2006 at a final concentration of 5 nM) to activate NF-κB and AP-1 which induce the production of SEAP. After a 22 hour incubation at 37° C., 5% CO2, SEAP levels are determined with the addition of HEK-Blue™ Detection reagent (Invivogen), a cell culture medium that allows for detection of SEAP, according to manufacturer's specifications.
Experimental for human TLR9: as §1

Consider `Cc1cc(-c2[nH]c3ccc(C(=O)N4CCCN(C)CC4)cc3c2CC(F)F)cc(C)n1` [Example 124, (3-(2,2-difluoroethyl)-2-(2,6-dimethylpyridin-4-yl)-1H-indol-5-yl)(4-methyl-1,4-diazepan-1-yl)methanone], for which the IC50 turned out to be 1120 nM at human TLR9, 36 nM at human TLR8 and 128 nM at human TLR7.

On to `CCN(CCN(C)C)C(=O)c1ccc2[nH]c(-c3cc(C)nc(C)c3)c(CC(F)F)c2c1` [Example 125, 3-(2,2-difluoroethyl)-N-(2-(dimethylamino)ethyl)-2-(2,6-dimethylpyridin-4-yl)-N-ethyl-1H-indole-5-carboxamide], for which the IC50 at human TLR9 worked out at 727 nM; at human TLR8 it was 23 nM; against human TLR7, 19 nM.

Turning to `COc1cc(-c2[nH]c3ccc(C(=O)N4CC5CNCC5C4)cc3c2C(C)C)cn2ncnc12` (stereo not drawn) [Example 126, (hexahydropyrrolo[3,4-c]pyrrol-2(1H)-yl)(3-isopropyl-2-(8-methoxy-[1,2,4]triazolo[1,5-a]pyridin-6-yl)-1H-indol-5-yl)methanone], the IC50 at human TLR9 came out at 2410 nM; at human TLR8 it was 233 nM; against human TLR7, 29 nM.

As to `COc1cc(-c2[nH]c3ccc(C(=O)NC4CCN(C(C)C)CC4)cc3c2C(C)C)cn2ncnc12` [Example 127, 3-isopropyl-N-(1-isopropylpiperidin-4-yl)-2-(8-methoxy-[1,2,4]triazolo[1,5-a]pyridin-6-yl)-1H-indole-5-carboxamide], the figures for the IC50 at human TLR9, at human TLR8 and against human TLR7 were 916 nM, 1.7 nM and 2.5 nM, respectively.

As to `COc1cc(-c2[nH]c3ccc(C(=O)N4CCCN(C)CC4)cc3c2C(C)C)cn2ncnc12` [Example 128, (3-isopropyl-2-(8-methoxy-[1,2,4]triazolo[1,5-a]pyridin-6-yl)-1H-indol-5-yl)(4-methyl-1,4-diazepan-1-yl)methanone], the values for the IC50 on human TLR9, at human TLR8 and on human TLR7 were 1400 nM, 2.6 nM and 3.8 nM, respectively.

With `COc1cc(-c2[nH]c3ccc(C(=O)N(C)CCN(C)C)cc3c2C(C)C)cn2ncnc12` [Example 129, N-(2-(dimethylamino)ethyl)-3-isopropyl-2-(8-methoxy-[1,2,4]triazolo[1,5-a]pyridin-6-yl)-N-methyl-1H-indole-5-carboxamide], the IC50 at human TLR9 was 3350 nM; on human TLR8, 2.3 nM; on human TLR7, 1.8 nM.

Regarding `Cc1cc(-c2[nH]c3ccc(C(C)C(=O)NC[C@@H](F)C(C)(C)O)cc3c2C(C)C)ccn1` (stereo partly drawn) [Example 130, N—((R)-2-fluoro-3-hydroxy-3-methylbutyl)-2-(3-isopropyl-2-(2-methylpyridin-4-yl)-1H-indol-5-yl)propanamide], the figures for the IC50 on human TLR9, at human TLR8 and against human TLR7 were above 50000 nM, 818 nM and 748 nM, respectively.

Regarding `Cc1cc(-c2[nH]c3ccc(C(C)C(=O)NCC(C)(C)O)cc3c2C(C)C)ccn1` (stereo not drawn) [Example 131, N-(2-hydroxy-2-methylpropyl)-2-(3-isopropyl-2-(2-methylpyridin-4-yl)-1H-indol-5-yl)propanamide], the results for the IC50 at human TLR9, on human TLR8 and at human TLR7 were above 50000 nM, 979 nM and 657 nM, respectively.

Turning to `Cc1cc(-c2[nH]c3ccc(C(C)(C)C(=O)NC[C@@H](F)C(C)(C)O)cc3c2C(C)C)ccn1` [Example 133, (R)—N-(2-fluoro-3-hydroxy-3-methylbutyl)-2-(3-isopropyl-2-(2-methylpyridin-4-yl)-1H-indol-5-yl)-2-methylpropanamide], the IC50 is above 50000 nM at human TLR9, 399 nM on human TLR8 and 284 nM against human TLR7.

Take `Cc1cc(-c2[nH]c3ccc(C(C)(C)C(=O)NCCN)cc3c2C(C)C)ccn1` [Example 134, N-(2-aminoethyl)-2-(3-isopropyl-2-(2-methylpyridin-4-yl)-1H-indol-5-yl)-2-methylpropanamide]: the IC50 on human TLR9 amounted to 1090 nM; on human TLR8, 110 nM; against human TLR7, 63 nM.

For `Cc1cc(-c2[nH]c3ccc(C(C)(C)C(=O)NCCC(C)(C)O)cc3c2C(C)C)ccn1` [Example 135, N-(3-hydroxy-3-methylbutyl)-2-(3-isopropyl-2-(2-methylpyridin-4-yl)-1H-indol-5-yl)-2-methylpropanamide], the IC50 at human TLR9 is above 50000 nM; on human TLR8, 551 nM; against human TLR7, 202 nM.

Turning to `CC(C)c1c(-c2ccnc3[nH]ncc23)[nH]c2ccc(CCC(=O)N3CCOCC3)cc12` [Example 136, 3-(3-isopropyl-2-(1H-pyrazolo[3,4-b]pyridin-4-yl)-1H-indol-5-yl)-1-morpholinopropan-1-one], the IC50 on human TLR9 was above 50000 nM; at human TLR8, 411 nM; on human TLR7, 1760 nM.

As to `COc1ccc(-c2[nH]c3ccc(CCC(=O)N4CC5CNCC5C4)cc3c2C(C)C)cc1OC` (stereo not drawn) [Example 137, 3-(2-(3,4-dimethoxyphenyl)-3-isopropyl-1H-indol-5-yl)-1-(hexahydropyrrolo[3,4-c]pyrrol-2(1H)-yl)propan-1-one], the IC50 on human TLR9 was found to be 840 nM; on human TLR8 it was 32 nM; on human TLR7, 109 nM.

With `Cc1cc(-c2[nH]c3ccc(C(C)(C)C(=O)N[C@H]4CCNC4)cc3c2C(C)C)ccn1` [Example 138, (S)-2-(3-isopropyl-2-(2-methylpyridin-4-yl)-1H-indol-5-yl)-2-methyl-N-(pyrrolidin-3-yl)propanamide], the IC50 worked out at 1170 nM on human TLR9, 64 nM at human TLR8 and 52 nM at human TLR7.

As to `Cc1cc(-c2[nH]c3ccc(C(C)(C)C(=O)NC4CCN(C(C)C)CC4)cc3c2C(C)C)ccn1` [Example 139, 2-(3-isopropyl-2-(2-methylpyridin-4-yl)-1H-indol-5-yl)-N-(1-isopropylpiperidin-4-yl)-2-methylpropanamide], the values for the IC50 on human TLR9, on human TLR8 and at human TLR7 were 1140 nM, 154 nM and 25 nM, respectively.

Take `Cc1cc(-c2[nH]c3ccc(C(C)(C)C(=O)N[C@@H]4CCCNC4)cc3c2C(C)C)ccn1` [Example 140, (R)-2-(3-isopropyl-2-(2-methylpyridin-4-yl)-1H-indol-5-yl)-2-methyl-N-(piperidin-3-yl)propanamide]: the IC50 turned out to be 1220 nM on human TLR9, 32 nM at human TLR8 and 40 nM against human TLR7.

In the case of `Cc1cc(-c2[nH]c3ccc(C(C)(C)C(=O)N[C@@H]4CCNC4)cc3c2C(C)C)ccn1` [Example 141, (R)-2-(3-isopropyl-2-(2-methylpyridin-4-yl)-1H-indol-5-yl)-2-methyl-N-(pyrrolidin-3-yl)propanamide], the IC50 at human TLR9 was 895 nM; at human TLR8 it was 68 nM; against human TLR7 it was 58 nM.

Regarding `Cc1cc(-c2[nH]c3ccc(C(C)(C)C(=O)NC4CN5CCC4CC5)cc3c2C(C)C)ccn1` (stereo not drawn) [Example 142, 2-(3-isopropyl-2-(2-methylpyridin-4-yl)-1H-indol-5-yl)-2-methyl-N-(quinuclidin-3-yl)propanamide], the IC50 on human TLR9 worked out at 790 nM; at human TLR8 it was 120 nM; against human TLR7, 16 nM.

`Cc1cc(-c2[nH]c3ccc(C(C)(C)C(=O)NC4CCNCC4)cc3c2C(C)C)ccn1` [Example 143, 2-(3-isopropyl-2-(2-methylpyridin-4-yl)-1H-indol-5-yl)-2-methyl-N-(piperidin-4-yl)propanamide]: the figures for the IC50 on human TLR9, on human TLR8 and at human TLR7 were 562 nM, 147 nM and 35 nM, respectively.

Consider `Cc1cc(-c2[nH]c3ccc(C(C)(C)C(=O)NC4CCC5CNCC54)cc3c2C(C)C)ccn1` (stereo not drawn) [Example 144, 2-(3-isopropyl-2-(2-methylpyridin-4-yl)-1H-indol-5-yl)-2-methyl-N-(octahydrocyclopenta[c]pyrrol-4-yl)propanamide], for which the IC50 on human TLR9 turned out to be 677 nM; at human TLR8, 64 nM; on human TLR7, 26 nM.

As for `Cc1cc(-c2[nH]c3ccc(C(C)(C)C(=O)NC4CCN(C5CCNC5)CC4)cc3c2C(C)C)ccn1` (stereo not drawn) [Example 145, 2-(3-isopropyl-2-(2-methylpyridin-4-yl)-1H-indol-5-yl)-2-methyl-N-(1-(pyrrolidin-3-yl)piperidin-4-yl)propanamide], the results for the IC50 on human TLR9, on human TLR8 and on human TLR7 were 4500 nM, 783 nM and 554 nM, respectively.

As to `Cc1cc(-c2[nH]c3ccc(C(C)(C)C(=O)NC4CCC5CNCC54)cc3c2C(C)C)ccn1` (stereo not drawn) [Example 146, 2-(3-isopropyl-2-(2-methylpyridin-4-yl)-1H-indol-5-yl)-2-methyl-N-(octahydrocyclopenta[c]pyrrol-4-yl)propanamide], the values for the IC50 on human TLR9, at human TLR8 and against human TLR7 were 979 nM, 122 nM and 160 nM, respectively.

Regarding `Cc1cc(-c2[nH]c3ccc(C(C)(C)C(=O)NC4CCC5CNCC54)cc3c2C(C)C)ccn1` (stereo not drawn) [Example 147, 2-(3-isopropyl-2-(2-methylpyridin-4-yl)-1H-indol-5-yl)-2-methyl-N-(octahydrocyclopenta[c]pyrrol-4-yl)propanamide], the IC50 stood at 1210 nM on human TLR9, 92 nM at human TLR8 and 109 nM on human TLR7.

As for `Cc1cc(-c2[nH]c3ccc(C(C)(C)C(=O)N4CC5CC(C4)C5N)cc3c2C(C)C)ccn1` (stereo not drawn) [Example 148, 1-(6-amino-3-azabicyclo[3.1.1]heptan-3-yl)-2-(3-isopropyl-2-(2-methylpyridin-4-yl)-1H-indol-5-yl)-2-methylpropan-1-one], the IC50 is 2640 nM on human TLR9, 79 nM on human TLR8 and 88 nM against human TLR7.

With `Cc1cc(-c2[nH]c3ccc(C(C)(C)C(=O)N4CC5CN(C)CC5C4)cc3c2C(C)C)ccn1` (stereo not drawn) [Example 149, 2-(3-isopropyl-2-(2-methylpyridin-4-yl)-1H-indol-5-yl)-2-methyl-1-(5-methylhexahydropyrrolo[3,4-c]pyrrol-2(1H)-yl)propan-1-one], the IC50 came to 3050 nM at human TLR9, 277 nM on human TLR8 and 17 nM at human TLR7.
